Measured values taken from patent US7671074B2, “Sulfonylguanidine compounds and pharmaceutical uses thereof” (Gruenenthal GmbH, priority 2000, dated 2010).

How the values were obtained:
[1] = target: gabapentin binding site; test: Binding assay: displacement of gabapentin from its binding site
Description: Gabapentin was used in a binding assay in order to check the binding and affinities of the selected compounds. The affinity of the compounds according to the invention was measured via the displacement of gabapentin from its binding site.

[2] = system: male Sprague-Dawley rats with L5/L6 spinal nerve ligatures; test: In vivo experiments according to Chung (spinal nerve ligation, tactile withdrawal threshold); design: species or system rat; conditions: further investigation
Description: In male Sprague-Dawley rats spinal nerve ligatures were applied according to Kim and Chung (1992) to the left L5/L6 spinal nerves. At the same time spinal catheters were implanted according to Pogatzki et al. ^6 (2000). 4 to 6 days after the operation the tactile threshold baseline (withdrawal thresholds) was measured on the ipsilateral and contra lateral rear paw by an electronic vonFrey anaesthesiometer (IITC Life Science, USA). […] After the test and baseline measurement, gabapentin and substances according to the invention were administered. The tactile withdrawal thresholds were measured 30 minutes after administration. The results are expressed as ED50 and % maximal possible effect (% MPE; % of the maximal possible effect) on the ipsilateral side, in which the baseline is taken as 0% and the withdrawal threshold of a control group is taken as 100% MPE.

[3] = system: male albino mice (NMRI), formalin-induced nociception; test: Formalin test on mice (second phase); type: in vivo, mouse
Description: The investigations to determine the antinociceptive action of the compounds according to the invention were carried out by the formalin test on male albino mice (NMRI, 25-35 g, Iffa Credo, Belgium).
In the formalin test the first (early) phase (0-15 minutes after the formalin injection) and the second (late) phase (15-60 minutes after the formalin injection) differ (D. Dubuisson et al., Pain, Vol. 4, pp. 161-174 (1977)). The early phase, being a direct reaction to the formalin injection, constitutes a model for acute pain, whereas the late phase is regarded as a model for persistent (chronic) pain (T. J. Coderre et al., Pain, Vol. 52, pp. 259-285 (1993)).
The compounds according to the invention were investigated in the second phase of the formalin test in order to obtain information on the effects of substances in chronic/inflammatory pain. By means of a single subcutaneous formalin injection (20 μl, 1% aqueous solution) into the dorsal side of the right-hand rear paw, a nociceptive reaction was induced in unconstrained experimental animals, manifested in a noticeable licking and biting of the affected paw.
The nociceptive behavior for the test period in the second (late) phase of the formalin test was continuously monitored by observing the animals. The pain reaction was quantified by totaling the time in seconds during which the animals continued to lick and bite the affected paw during the investigation period. After injecting substances that have an antinociceptive effect in the formalin test, the aforedescribed behavior pattern of the animals is reduced or possibly even cancelled.
Corresponding to the substance tests, in which the animals had been injected with the test substance before formalin, the control animals were injected with a vehicle, i.e. solvent (e.g. 0.9% NaCl solution) before the formalin injection. […]
Based on the quantification of the pain reaction, the effect of the substance in the formalin test was determined as the change in the control in percentage terms. […]

Question: For N/C(=N\S(=O)(=O)c1ccc(Cl)cc1)NCc1ccccn1 [Example 21, N-{amino-[(pyridin-2-yl-methyl)-amino]-methylene}-4-chlorobenzenesulfonamide], which IC50 ([1]; displacement of gabapentin from its binding site) is on record?
Answer: 779 nM

Question: And the Percent inhibition ([1]; inhibition/displacement of gabapentin, concentration 10^−5 μM [sic])?
Answer: 75%

Question: And the ED50 ([2]; Rattus norvegicus, read-out:, table title: Analgesia testing in rats according to Chung)?
Answer: 13.3 mg/kg

Question: And the “effect compared with gabapentin” value ([2]; rats, Chung test, result in words)?
Answer: superior in their effect to gabapentin

Question: What about the “effect in the Chung test” value ([2]; rats, result in words) of the same compound?
Answer: show an effect

Question: And the ED50 ([3]; Mus musculus, second (late) phase of the formalin test, read-out: Formalin Test on Mice - ED50)?
Answer: 97 mg/kg

Question: And the “inhibition of the formalin-induced nociception” value ([3]; result in words)?
Answer: exhibited an inhibition of the formalin-induced nociception
